pIC50: −log10 of the molar value.
Test system: SW 1271 complex spheroids, viability
Experiment: Anticancer human tumor SW 1271 cell line growth inhibition [LSD1];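 also: spheroids exposed to agents for 7 days before luminescence read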;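 as to viability, T/C: 100% = DMSO vehicle control viability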
Details: for pIC50: curve of first compound; for viability, T/C: stronger effect = lower value
Summary of the method: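 Drug combinations with the LSD1 inhibitor iadademstat tested on tumor cells co-cultured as spheroids with endothelial cells and mesenchymal stem cells. Concentrations descended in half-log increments from clinical Cmax or 10 microM.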

[1] = second compound 0.1 µM, first compound 0.000316 µM
[2] = second compound 0.1 µM, first compound 0.001 µM
[3] = second compound 0.1 µM, first compound 0.00316 µM
[4] = second compound 0.1 µM, first compound 0.01 µM
[5] = second compound 0.1 µM, first compound 0.0316 µM
[6] = second compound 0.1 µM, first compound 0.1 µM
[7] = second compound 0.316 µM, first compound 0.000316 µM
[8] = second compound 0.316 µM, first compound 0.001 µM
[9] = second compound 0.316 µM, first compound 0.00316 µM
[10] = second compound 0.316 µM, first compound 0.01 µM
[11] = second compound 0.316 µM, first compound 0.0316 µM
[12] = second compound 0.316 µM, first compound 0.1 µM
[13] = second compound 1 µM, first compound 0.000316 µM
[14] = second compound 1 µM, first compound 0.001 µM
[15] = second compound 1 µM, first compound 0.00316 µM
[16] = second compound 1 µM, first compound 0.01 µM
[17] = second compound 1 µM, first compound 0.0316 µM
[18] = second compound 1 µM, first compound 0.1 µM
[19] = second compound 3.16 µM, first compound 0.000316 µM
[20] = second compound 3.16 µM, first compound 0.001 µM
[21] = second compound 3.16 µM, first compound 0.00316 µM
[22] = second compound 3.16 µM, first compound 0.01 µM
[23] = second compound 3.16 µM, first compound 0.0316 µM
[24] = second compound 3.16 µM, first compound 0.1 µM
[25] = second compound 10 µM, first compound 0.000316 µM
[26] = second compound 10 µM, first compound 0.001 µM
[27] = second compound 10 µM, first compound 0.00316 µM
[28] = second compound 10 µM, first compound 0.01 µM
[29] = second compound 10 µM, first compound 0.0316 µM
[30] = second compound 10 µM, first compound 0.1 µM

Structure (SMILES)	pIC50 (second compound 0.1 µM)	pIC50 (second compound 0.316 µM)	pIC50 (second compound 1 µM)	pIC50 (second compound 3.16 µM)	pIC50 (second compound 10 µM)	viability, T/C [1]	viability, T/C [2]	viability, T/C [3]	viability, T/C [4]	viability, T/C [5]	viability, T/C [6]	viability, T/C [7]	viability, T/C [8]	viability, T/C [9]	viability, T/C [10]	viability, T/C [11]	viability, T/C [12]	viability, T/C [13]	viability, T/C [14]	viability, T/C [15]	other results
CC(C)CC(NC(=O)C(Cc1ccccc1)NC(=O)c1cnccn1)B(O)O (stereo not given) + NC1CC1c1ccc(-c2cccc(O)c2)cc1	> 9.50	> 9.50	> 9.50	> 9.50	> 9.50	2.9%	0.1%	0.1%	0.28%	0.2%	0.25%	3.44%	0.11%	0.09%	1.18%	0.59%	0.2%	2.62%	0.2%	0.37%	viability, T/C [16]: 4.1%; viability, T/C [17]: 0.05%; viability, T/C [18]: 0.13%; viability, T/C [19]: 2.05%; viability, T/C [20]: 0.64%; viability, T/C [21]: 0.12%; viability, T/C [22]: 4.7%; viability, T/C [23]: 0.14%; viability, T/C [24]: 0.19%; viability, T/C [25]: 6.62%; viability, T/C [26]: 0.5%; viability, T/C [27]: 0.15%; viability, T/C [28]: 0.72%; viability, T/C [29]: 0.12%; viability, T/C [30]: 0.19%
CC(C)CC(NC(=O)CNC(=O)c1cc(Cl)ccc1Cl)B1OC(=O)CC(CC(=O)O)(C(=O)O)O1 (stereo not given) + NC1CC1c1ccc(-c2cccc(O)c2)cc1	8.31	8.33	8.36	8.40	8.36	86.8%	83.1%	76%	6.29%	0.38%	0.5%	83.1%	85.3%	72.1%	6.64%	0.44%	0.17%	75.1%	76.9%	67.8%	viability, T/C [16]: 4.77%; viability, T/C [17]: 0.26%; viability, T/C [18]: 0.21%; viability, T/C [19]: 73.1%; viability, T/C [20]: 72.1%; viability, T/C [21]: 61%; viability, T/C [22]: 3.44%; viability, T/C [23]: 3.87%; viability, T/C [24]: 0.21%; viability, T/C [25]: 66.1%; viability, T/C [26]: 67.6%; viability, T/C [27]: 70.9%; viability, T/C [28]: 3.06%; viability, T/C [29]: 0.15%; viability, T/C [30]: 0.18%

Source: PubChem BioAssay AID1918941 (Molecular Pharmacology Branch, DTP, NCI, 2023)
